Data published in patent publication US5705649A, “Protein staining compositions and methods” (Promega Corporation, priority 1995, dated 1998).

How the values were obtained:
[1] = system: Promega Mid-Range Molecular Weight Standards; assay: Post-electrophoretic detection of protein using NBODY derivatives; details: crude dye solution in 5% acetic acid, 20% ethanol, one hour
Method: Promega Mid-Range Molecular Weight Standards were diluted and heated as described in Example 27 to produce solutions containing 125, 25, 5 and 1 ng of protein per band in 10 microliters of solution. A 10% Tris Glycine, precast polyacrylamid gel from Novex Corp. (San Diego, Calif., USA, Cat. No. EC 6075.) was loaded with 10 microliters of the just described, diluted molecular weight standard solutions in lanes so that two lanes, each with the same diluted standard solution, were separated by a blank lane. The gel was developed using conditions recommended by the manufacturer and following development, the gel was cut in the blank lane. The segments were placed in 50 ml of 5% acetic acid, 20% ethanol. Six hundred microliters of the NBODY-C12 reaction mixture from Example 40 was added to the solution with one of the segments of a pair (of lanes with the same protein molecular weight standard solution) and three hundred microliters of the NBODY-C16 reaction mixture from Example 40 was added to the solution with the other segment of the same pair. After one hour of incubation, the gel segments were photographed on a transilluminator as described in example 27. Protein bands were detected in the lanes containing the 125 and 25 ng of protein per band using this method and the crude dye solutions from Example 40.

[2] = system: Promega Mid-Range Molecular Weight Markers; assay: Sensitive post-electrophoretic detection of protein using purified NBODY dye
Method: A 12% SDS-PAGE gel was prepared as described in Example 27 and was loaded with dilute Promega Mid-Range Molecular Weight Markers (diluted and heated as in Example 27) to produce lanes which contained 100, 80, 60, 40, 20, 10 and 5 ng of protein per band. The gel was run in a BioRad Miniprotean II gel system at 50V for 1.5 hr. then 125V until the tracking dye reached the bottom of the gel. After the dye reached the bottom of the gel, the gel was removed from the apparatus and placed in 50 ml of 5% acetic acid, 20% ethanol.
The NBODY dye prepared as in Example 40 with n-dodecyl amine was purified by applying 2 ml of the NBODY-C12 reaction mixture from Example 40 3cm from one edge of a 25×25cm silica gel plate (Sigma Chemical Co., St. Louis, […]., USA). The plate was developed using a 6:1 ratio of tolulene:ethyl acetate. […]
After 30 minutes in the 5% acetic acid, 20 % ethanol, the gel was removed from that solution and replaced with a solution containing the purified NBODY-C12 stain with the following composition: one ml of purified NBODY-C12 solution was placed in 50 ml of 35% ethanol, 5% acetic acid. […] After one hour in the water solution, the gel was scanned on a Molecular Dynamics Fluoroimager (Molecular Dynamics, Sunnyvale, Calif.), which excites fluorescence with laser light of 483 nm wavelength.

[3] = system: Promega Mid-Range Molecular Weight Standards; assay: Detection of proteins during SDS-PAGE with Acid Blue 25 dyes; details: 0.01% (w/v) in cathode buffer (Example 23)
From the text: Ten μl of each solution was loaded into lanes of the three gels, and they were placed into three separate Bio-Rad Miniprotean II gel apparati (Bio-Rad, Richmond, Calif., USA) with the cathode solutions containing 1.0, 0.75, or 0.5% (v/v) of the derivatized Acid Blue 25 preparation (unpurified). The samples were then fractionated within the gels by application of 15 mA of current per gel.

Structure (SMILES) | lowest protein per band detected [1] [ng] | visibility of protein bands ([2]; lanes of 100 to 5 ng per band) | detection limit ([2]; purified dye in 35% ethanol, 5% acetic acid, one hour, water one hour, Fluoroimager 483 nm) | visibility of protein bands during electrophoresis [3]
CCCCCCCCCCCCNC(=O)CCCCCNc1ccc([N+](=O)[O-])c2nonc12 [NBODY-C12] | 25 | Protein bands were seen for all of the protein species in the lanes containing all protein concentrations | lower than 5 ng | 
Nc1c(S(=O)(=O)O)cc(Nc2ccccc2)c2c1C(=O)c1ccccc1C2=O [unmodified Acid Blue 25] |  |  |  | no protein bands were seen
